Assay results published in the OPERA property sets (Mansouri et al. 2018).

For CCCCCCc1ccc(-c2ccc(C#N)cc2)cc1, the ready biodegradability was “not readily biodegradable”.
With c1cc[nH]c1 the ready biodegradability was “readily biodegradable”.
In the case of O=c1[nH]sc2ccccc12, the ready biodegradability was “not readily biodegradable”.
For Nc1nc(N)nc(-c2ccccc2)n1, the ready biodegradability was “not readily biodegradable”.
With O=C1CCO1 the ready biodegradability was “readily biodegradable”.
With O=[N+]([O-])c1c(Cl)c(Cl)c(Cl)c(Cl)c1Cl the ready biodegradability was “not readily biodegradable”.
With Clc1cc2c(cc1Cl)Oc1cc(Cl)c(Cl)cc1O2 the ready biodegradability was “not readily biodegradable”.
With C=C(C)C(=O)OCCCCCCCCCCCCCCCCCC the ready biodegradability was “readily biodegradable”.
In the case of COP(=O)(NC(C)=O)SC (centres undefined), the ready biodegradability was “readily biodegradable”.
For CCCCOCCOCCOC(=O)CCCCC(=O)OCCOCCOCCCC, the ready biodegradability was “readily biodegradable”.
For O=C1Nc2ccccc2CCc2ccccc21, the ready biodegradability was “readily biodegradable”.
In the case of CCCCC, the ready biodegradability was “readily biodegradable”.
With Oc1ccccc1 the ready biodegradability was “readily biodegradable”.
With CC(C)CCOC(=O)c1ccccc1O the ready biodegradability was “readily biodegradable”.

Point of comparison: CCCCC, log10 Koa 1.96. Against it:
- Brc1cccc(Oc2ccccc2)c1 — higher, 7.36
- Clc1cc2c(cc1Cl)Oc1cc(Cl)c(Cl)cc1O2 — higher, 10.1
- Clc1ccc(Cl)c2c(Cl)ccc(Cl)c12 — higher, 8.45

Point of comparison: CCCCOCCOCCCC, boiling point 203 °C. Against it:
- Cc1ccccc1CO[C@H]1C[C@]2(C(C)C)CC[C@@]1(C)O2 (single isomer, unassigned) — higher, 313 °C
- Cc1ccc(C(C)c2ccc(C)cc2)cc1 — higher, 298 °C
- C=CCOC(Cn1ccnc1)c1ccc(Cl)cc1Cl (centres undefined) — higher, 347 °C
- c1cc[nH]c1 — lower, 130 °C
- FC(F)(F)c1ccc(Cl)cc1Cl — lower, 178 °C
- FC1=C(F)C(F)(F)C(F)(F)C(F)(F)C1(F)F — lower, 52 °C
- CCCC(=O)CCC — lower, 144 °C
- CC=CCCC=CC — lower, 124 °C
- O=C1CCO1 — lower, 162 °C
- CCOC(=O)C(C)(C)C — lower, 118 °C
- CC=CC(C)=O — lower, 122 °C
- O=[N+]([O-])c1c(Cl)c(Cl)c(Cl)c(Cl)c1Cl — higher, 328 °C
- CCCCCCCCN(C)C — lower, 191 °C
- CCCCCCCCC(=O)CCCCCCCC — higher, 252 °C
- CCC(C)CCC(C)C (centres undefined) — lower, 136 °C
- CC1=C(C(=O)O)CCC1(C)C — higher, 256 °C
- ClC(Br)(Br)Br — lower, 158 °C
- CC1CCC(O)CC1 (centres undefined) — lower, 172 °C
- CCC(Cl)(Cl)[N+](=O)[O-] — lower, 145 °C
- Cc1ccccc1NC=O — higher, 288 °C
- CCc1ncc(C)cc1C — lower, 198 °C
- Oc1ccccc1 — lower, 182 °C
- CC(C)CCOC(=O)c1ccccc1O — higher, 278 °C
- CC(CCl)[N+](=O)[O-] (centres undefined) — lower, 172 °C
- NN1CCOCC1 — lower, 166 °C

Point of comparison: Cc1ccccc1CO[C@H]1C[C@]2(C(C)C)CC[C@@]1(C)O2 (single isomer, unassigned), log10 Koc (L/kg) 2.6. Against it:
- C=CCOC(Cn1ccnc1)c1ccc(Cl)cc1Cl (centres undefined) — higher, 3.73
- O=C(O)COc1cc(Cl)c(Cl)cc1Cl — lower, 1.99
- O=[N+]([O-])c1c(Cl)c(Cl)c(Cl)c(Cl)c1Cl — higher, 3.98
- Clc1cc2c(cc1Cl)Oc1cc(Cl)c(Cl)cc1O2 — higher, 6.5
- COP(=O)(NC(C)=O)SC (centres undefined) — lower, 0.3
- CCNc1nc(Cl)nc(NC(C)(C)C)n1 — lower, 2.32
- CS(=O)(=O)c1c(F)c(F)c(F)c(F)c1F — lower, 1.46
- Oc1ccccc1 — lower, 1.43

Point of comparison: CCCC(=O)CCC, log10 vapour pressure (mmHg) 0.787. Against it:
- Cc1ccccc1CO[C@H]1C[C@]2(C(C)C)CC[C@@]1(C)O2 (single isomer, unassigned) — lower, -4.12
- CCN(CC)Cc1cccnc1 — lower, -2.37
- C=CCOC(Cn1ccnc1)c1ccc(Cl)cc1Cl (centres undefined) — lower, -5.92
- c1cc[nH]c1 — within 0.2 log units, 0.922
- FC(F)(F)c1ccc(Cl)cc1Cl — lower, 0.0449
- CCOC(=O)C(C)(C)C — higher, 1.25
- O=[N+]([O-])c1c(Cl)c(Cl)c(Cl)c(Cl)c1Cl — lower, -4.3
- CCCCOCCOCCCC — lower, -1.05
- Clc1cc2c(cc1Cl)Oc1cc(Cl)c(Cl)cc1O2 — lower, -8.82
- COP(=O)(NC(C)=O)SC (centres undefined) — lower, -5.77
- CCNc1nc(Cl)nc(NC(C)(C)C)n1 — lower, -5.95
- CCCCC — higher, 2.71
- Oc1ccccc1 — lower, -0.456

Point of comparison: FC(F)(F)c1ccc(Cl)cc1Cl, melting point -26 °C. Against it:
- N#Cc1ccncc1C#N — higher, 80 °C
- C=CCOC(Cn1ccnc1)c1ccc(Cl)cc1Cl (centres undefined) — higher, 52.7 °C
- c1cc[nH]c1 — higher, -23.4 °C
- CNc1ccc(NCCO)c2c1C(=O)c1ccccc1C2=O — higher, 187 °C
- CC(C)OC(=O)C1(S(=O)(=O)c2ccc([N+](=O)[O-])cc2)CCC1 — higher, 65.5 °C
- C[N+]1(CCC(O)(c2ccccc2)c2cccs2)CCOCC1.[I-] (centres undefined) — higher, 190 °C
- CC(=O)N(c1onc(C)c1C)S(=O)(=O)c1ccc(N)cc1 — higher, 194 °C
- C[C@]12CC[C@@H]3c4ccc(OC(=O)N(CCCl)CCCl)cc4CC[C@H]3[C@@H]1CC[C@@H]2O — higher, 104 °C
- CCCC(=O)CCC — lower, -33 °C
- Nc1nc(N)nc(-c2ccccc2)n1 — higher, 226 °C
- Cn1nc2ccc(NC(=O)c3ccccc3)cc2n1 — higher, 166 °C
- CC=CCCC=CC — lower, -76 °C
- O=C1CCO1 — lower, -33.4 °C
- O=C(O)COc1cc(Cl)c(Cl)cc1Cl — higher, 153 °C
- CC(=O)O[C@]1(C(C)=O)CC[C@H]2[C@@H]3C=C(Cl)C4=CC(=O)CC[C@]4(C)[C@H]3CC[C@@]21C — higher, 213 °C
- CCOC(=O)C(C)(C)C — lower, -89.5 °C
- O=[N+]([O-])c1c(Cl)c(Cl)c(Cl)c(Cl)c1Cl — higher, 144 °C
- CCCCCCCCN(C)C — lower, -57 °C
- CCCCOCCOCCCC — lower, -69.1 °C
- Clc1cc2c(cc1Cl)Oc1cc(Cl)c(Cl)cc1O2 — higher, 305 °C
- O=CC=Cc1ccco1 — higher, 54 °C
- CCCCCCCCC(=O)CCCCCCCC — higher, 53 °C
- C[C@@H]1Cc2c(Cl)cc(C(=O)N[C@@H](Cc3ccccc3)C(=O)O)c(O)c2C(=O)O1 — higher, 169 °C
- O=C(O)/C=C(/Br)C(=O)O — higher, 163 °C
- CC1(C)[C@H]2CC[C@]1(C)C(=O)[C@H]2O — higher, 206 °C
- COc1ccc2c(c1O)-c1cccc3c1C(C2)N(C)CC3 (centres undefined) — higher, 124 °C
- COP(=O)(NC(C)=O)SC (centres undefined) — higher, 88 °C
- CC1=C(C(=O)O)CCC1(C)C — higher, 135 °C
- CCCCOCCOCCOC(=O)CCCCC(=O)OCCOCCOCCCC — lower, -47 °C
- CCNc1nc(Cl)nc(NC(C)(C)C)n1 — higher, 178 °C
- ClC(Br)(Br)Br — higher, 55 °C
- COC(=O)c1ccccn1 — higher, 18.7 °C
- Cc1ccccc1NC=O — higher, 62 °C
- CC(C)(O)C(C)(C)O — higher, 43 °C
- O=C(O)C(c1ccc(Cl)cc1)c1ccc(Cl)cc1 — higher, 168 °C
- NC(=O)Oc1ccc(Cc2ccccc2)cc1 — higher, 148 °C
- O=C(O)c1cccc(F)c1 — higher, 124 °C
- CCCCC — lower, -130 °C
- Oc1ccccc1 — higher, 40.9 °C
- Cc1cc(C(C#N)c2ccc(Cl)cc2)c(Cl)cc1NC(=O)c1cc(I)cc(I)c1O (centres undefined) — higher, 218 °C
- NS(=O)(=O)c1cc2c(cc1Cl)NC(CC1CCCC1)NS2(=O)=O (centres undefined) — higher, 238 °C

Point of comparison: c1cc[nH]c1, log10 Henry constant (atm·m³/mol) -4.74. Against it:
- CCCCC — higher, 0.0969
- Oc1ccccc1 — lower, -6.48

Point of comparison: CCC(C)CCC(C)C (centres undefined), log10 biodegradation half-life (days) 0.778. Against it:
- CCCCC — within 0.2 log units, 0.699
